Patent publication US7884067B2, “Peptides derived from cadherin and methods of use thereof” (Mount Sinai School of Medicine of New York University, priority 2001, dated 2011)

Tests used:
[1] = test system: N-cadherin; experiment: In vitro ε-cleavage assay, membranes from mouse brain neuronal cultures; format: biochemical; settings: PS1+/− neurons, L-685,458 (0.5 μM)
Procedure: Primary, neuronal cultures. Mixed hippocampal and cortical neuronal cultures were prepared from E18 mouse or rat brains as described by Banker and Goslin (1991) Culturing Nerves Cells, London, MIT Press. Neurons were maintained 10 days in vitro in glial conditioned MEM containing 2% glucose and N2 supplements as described by Bottenstein and Sato (1979) Proc. Natl. Acad. Sci. USA 76: 514-517, and then were stimulated for 15 minutes with Mg2+-free Hanks' balanced salt solution (HBSS, Sigma) containing KCl (50 mM), L-Glutamate ([…]) or NMDA ([…]). D-APV ([…]) was applied 15 minutes before stimulation.
(§1) In vitro γ-secretase-like ε-cleavage assay. Cells were washed in PBS, resuspended in 1 ml of 4° C. hypotonic buffer (10 mM MOPS, pH 7.0, 10 mM KCl) and homogenized on ice. A post-nuclear supernatant was prepared by centrifugation at 1000×g for 15 minutes at 4° C. Crude membranes were isolated from the post-nuclear supernatant by centrifugation at 16,000×g for 40 minutes at 4° C. The membranes were then resuspended in […] of assay buffer (150 mM sodium citrate, pH 6.4, 1× Complete protease inhibitor cocktail), and incubated at 37° C. for 2 hours. Samples were either analyzed directly by WB or separated into pellet (P100) and supernatant (S100) fractions by ultracentrifugation for 1 hour at 100,000×g at 4° C. The S100 and P100 fractions were then analyzed by WB.

[2] = test system: E-cadherin/catenin cytoskeletal complex; experiment: Ionomycin-induced CAJ disassembly in A431 cells, subcellular fractionation and Western blot; format: cell-based, human; settings: 30 minutes preincubation with L-685,458, then ionomycin
Procedure: Subcellular fractionation. Confluent A431 cells (one 100 mm dish) were rinsed and scraped with 4° C. phosphate-buffered saline (PBS). Cells were then placed into 1 ml of buffer A (20 mM Tris-HCl [pH 7.5], 0.25 M sucrose, 10 mM EGTA, 2 mM EDTA, 1× Complete protease inhibitor cocktail, Roche), passed through a 27 gauge needle 10 times, and the obtained cell lysate was centrifuged at 500×g for 10 min at 4° C. The supernatant was then centrifuged at 120,000×g for 45 min at 4° C. to separate the cytosolic and crude membrane fractions. The pellet (crude membrane fraction) was washed twice with buffer A and resuspended by sonication in […] of buffer A containing 1% Triton X-100. The suspension was incubated at 4° C. for 30 min and then centrifuged at 120,000×g for 45 min at 4° C. to separate the membrane and Triton X-100-insoluble fractions. The pellet (Triton X-100-insoluble fraction) was washed twice with buffer A and solubilized by sonication in RIPA buffer. […] of proteins from the different fraction were analyzed by SDS-PAGE.
In stable cell-cell adhesion, the E-cadherin/β-catenin complex of the CAJ is anchored to the actin cytoskeleton via catenin and this association is manifested by the insolubility of the complex components in Triton X-100 (Baki et al., (2001)). Induction of apoptosis or calcium influx disrupts cadherin-mediated cell-cell adhesion by cleaving cadherin and disassembling the CAJ complexes. To determine whether the γ-secretase cleavage of E-cadherin is involved in the CAJ disassembly, calcium influx was induced with ionomycin (10 μM) in A431 cells preincubated for 30 minutes in the absence or presence of the γ-secretase inhibitor L-685,458. Cell extracts were fractionated, and analyzed on Western blots with antibodies against cytoplasmic E-cadherin C36 or β- and α-catenins. […] In addition, L-685,458 delayed the ionomycin-induced decrease of cytoskeletal β-catenin and α-catenin and inhibited their release to the soluble cytosol.

[3] = test system: N-cadherin; experiment: In vitro ε-cleavage assay, membranes from mouse fibroblasts or N2a cell cultures; format: biochemical; set-up: dose or concentration left out as unconfirmed; settings: cultures incubated 16 hours with L-685,458; membranes 37° C. 2 hours
Procedure: as §1
To detect the product of the PS1-dependent cleavage of N-cadherin, an in vitro assay that uses incubation of membrane fractions to detect the ICD product of the E-cleavage of APP was used. (Gu et al. (2001) J. Biol. Chem. 276:35235-35238; McLendon et al. (2000) FASEB J. 14:2383-2386). […]

[4] = test system: CRE-dependent transactivation; experiment: CRE-dependent transactivation (luciferase) in L cells; format: cell-based; settings: L cells transfected with increasing amount of pN-Cad/CTF2, FIG. 9A
Procedure: Transactivation assays. CRE-dependent transactivation was measured in the absence or presence of overexpression of PKA (pFC-PKA, Stratagene) by cotransfection with CRE-luciferase reporter plasmid (pCRE-Luc, Stratagene) and pSV-β-galactosidase vector (Promega) to evaluate transfection efficiency. CHOP-mediated transactivation was measured by cotransfection with the Gal4-fusion trans-activator plasmids (pFA-CHOP and pFR-Luc, Stratagene). 30 hours after transfection, luciferase and β-galactosidase activities were determined following manufacturer's instructions using a TD-20/20 luminometer (Turner Designs) and a DU-64 spectrophotometer (Beckman). Values were normalized to β-galactosidase activity and protein concentration.
Stimulation of synaptic NMDA receptor leads to phosphorylation of transcription factor CREB that then recruits transcription co-activator CBP, a process ultimately leading to activation of CREB-mediated gene expression (Impey and Goodman (2001) Sci STKE, PE1). […] CRE-dependent transactivation was measured in the absence (−) or presence (+) of […] PKA (pFC-PKA) using CRE-luciferase reporter plasmid (pCRE-Luc) and pSV-β-galactosidase vector. CHOP-mediated transactivation was measured by […] with the Gal4-fusion trans-activator plasmids (pFA-CHOP and pFR-Luc) and pSV-β-galactosidase vector. […]

CC(C)C[C@H](NC(=O)[C@H](Cc1ccccc1)C[C@@H](O)[C@H](Cc1ccccc1)NC(=O)OC(C)(C)C)C(=O)N[C@@H](Cc1ccccc1)C(N)=O [L-685,458]
N-Cad/CTF2 peptide [1]: inhibited | ionomycin-induced decrease of cytoskeletal β-catenin and α-catenin [2]: delayed | ionomycin-induced degradation of the full length E-cadherin [2]: partially inhibited | ionomycin-induced metabolism of cytoskeletal E-Cad/CTF1 [2]: blocked | production of soluble cytosolic E-Cad/CTF2 [2]: abolished | release of β-catenin and α-catenin to the soluble cytosol [2]: inhibited | soluble 35 kDa peptide N-Cad/CTF2 [3]: completely absent

B1: N-Cad/CTF2: chicken cytoplasmic domain of N-cadherin (N-Cad/CTF2) inserted into vector pECE, expressed in L cells (protein)
chain: KRRDKERQAKQLLIDPEDDVRDNILKYDEEGGGEEDQDYDLSQLQQPDTVEPDAIKPVGIRRLDERPIHAEPQYPVRSAAPHPGDIGDFINEGLKAADNDPTAPPYDSLLVFDYEGSGSTAGSLSSLNSSSSGGEQDYDYLNDWGPRFKKLADMYGGGDD
constitutive and PKA-stimulated CRE-dependent transactivation [4]: inhibits both constitutive and PKA-stimulated CRE-dependent transactivation in a dose-dependent manner
